Test results from article PMC9030691, “Toxicokinetics of β-Amanitin in Mice and In Vitro Drug–Drug Interaction Potential” (Pharmaceutics, 2022).
Where two headings read alike, the source gives them in different places.

Columns and labels:
[1] = mice, oral administration at doses of 2, 5, or 10 mg/kg; cited from earlier work
Method: Amanita phalloides poisoning can cause acute hepatitis, leading to the rapid development of liver insufficiency and ultimately coma and death. Nephrotoxicity is reported less frequently. Yilmaz et al. reported that an oral intake of approximately 50 g of fresh Amanita phalloides, representing a dose of 0.32 mg/kg of amatoxins, can be lethal. A few reports are available that describe the toxicokinetics of α- and β-amanitin after the oral administration of toadstool extract to beagle dogs and rats. In addition, the toxicokinetics of α-amanitin were investi ...

in vivo = assay type: in vivo; conditions: male ICR mice, n = 4; for AUClast, brain: brain homogenate; for AUClast, heart: heart homogenate; for AUClast, kidney: kidney homogenate; for AUClast, liver: liver homogenate; for AUClast, lung: lung homogenate; for AUClast, spleen: spleen homogenate; for AUC(0-t): mouse, in vivo, plasma, read-out: AUClast, plasma (converted)
Method: Male mice fasted for 12 h with free access to water. Blood, brain, liver, kidney, heart, lung, stomach, intestine, and spleen were collected at 0.5, 1, 2, and 4 h after iv (0.8 mg/kg) injection or at 0.5, 1, 3, and 6 h after oral (10 mg/kg) administration of β-amanitin (n = 4 at each time point). Plasma samples (5 μL each) were harvested by centrifugation at 13,000× g for 3 min at 4 °C. Tissue samples were washed with cold normal saline, weighed, and stored at −80 °C until analysis.
Concentrations of β-amanitin in biological samples were evaluated following our previous methodology. The standard calibration curves for β-amanitin in mouse plasma ranged from 0.5 to 500 ng/mL and were linear, with a correlation coefficient of 0.9952. The inter- and intra-day accuracy and precision fell within the acceptance criteria (3.1–14.6% of coefficients of variation (CVs) and 92.5–115.0% of accuracy). The extraction recovery and matrix effect of this analytical method were 82.8–88.9% and 93.0–98.6%.
Each tissue and feces sample was homogenized in water (1:3, w/v). In total, 50 μL aliquots of urine, tissue homogenates, or feces homogenates were mixed with 150 μL of 4′-hydroxydiclofenac solution (IS, 5 ng/mL in methanol). The other steps were as described for plasma sample preparation.
Toxicokinetics of β-Amanitin in Mice and In Vitro Drug–Drug
Young Yoon Bang, Im-Sook Song, Min Seo Lee, Chang Ho Lim, Yong-Yeon Cho, Joo Young Lee, Han Chang Kang […]
1. Liquid chromatography-high resolution mass spectrometry (LC-HRMS) of β-amani-tin in various tissue samples
Blood, brain, liver, kidney, heart, lung, stomach, intestine, and spleen tissues were collected, washed with cold normal saline, and weighted. Tissue samples were homoge-nized in water (1:3, w/v) and 50 μL aliquots of tissue homogenates were mixed with 150 μL of 4’-hydroxydiclofenac solution (IS, 5 ng/mL in methanol) and vortexed for 2 min. The mixture was centrifuged at 13,000 rpm at 4 °C for 5 min, and the supernatant was then transferred to an autosampler vial. An aliquot (5 μL) was injected into the LC-HRMS sys-tem for analysis, according to the previous methods. The standard calibration curves for β-amanitin in various tissue homogenates were prepared individually using the re-spective blank tissue homogenates. Each calibration standard curve was validated using the quality control (QC) samples.
As results, the standard calibration curves for β-amanitin in various tissue homoge- […]
the quality control samples prepared in various tissue homogenates were all in acceptance criteria (Supplementary Table 1).
Table S1. Concentration ranges, representative regression equation, and correlation coefficients of the calibration curves and precision (coefficient of variation, CV) and accuracy values for β-amanitin […]
Tissue Concentration Representative regression Correlation range (ng/g tissue) equation coefficient QC (ng/g tissue) Intra-day (n = 5) Accuracy (%) CV (%) […]

CYP2A6 = target: T1, CYP2A6 (Homo sapiens, UniProt P11509); experiment: CYP2A6 inhibition in human liver microsomes; assay type: in vitro ADME; conditions: ultrapooled human liver microsomes 0.2 mg/mL, 2.5 μM coumarin, β-amanitin 0.1–100 μM, pH 7.4, 37 °C, 15 min, LC-MS/MS, n = 3, read-out: IC50, CYP2A6 coumarin 7-hydroxylase
T1 construct: from tissue; host or cells: ultrapooled human liver microsomes
Method: β-amanitin inhibition (IC50 values) of CYP1A2, CYP2A6, CYP2B6, CYP2C8, CYP2C9, CYP2C19, CYP2D6, and CYP3A4 enzyme activities in HLMs were evaluated using LC-MS/MS and CYP substrates as previously described. Each incubation mixture was made up to a volume of 100 μL including HLMs (0.2 mg/mL), 50 mM potassium phosphate buffer (pH 7.4), 1.0 mM NADPH, 10 mM magnesium chloride, various concentrations of β-amanitin (0.1–100 μM), a cocktail of seven CYP probe substrates (50 μM phenacetin for CYP1A2, 2.5 μM coumarin for CYP2A6, 2 μM amodiaquine for CYP2C8, 10 μM diclofenac for CYP2C9, 100 μM [S]-mephenytoin for CYP2C19, 5 μM bufuralol for CYP2D6, and 2.5 μM midazolam for CYP3A4 in acetonitrile), or 50 μM bupropion for CYP2B6. The reactions were initiated with NADPH followed by incubation in a shaking water bath at 37 °C for 15 min with or without 30 min preincubation with NADPH. Reactions were stopped with 50 μL of ice-cold methanol containing ^13C2, ^15N-acetaminophen and d9-1′-hydroxybufuralol (ISs). Incubation mixtures were centrifuged at 13,000× g for 8 min at 4 °C. An aliquot (5 μL) of the supernatant from the reaction mixture was analyzed by the previous LC-MS/MS method.

[2] = iv 0.8 mg/kg, sampled 0.5, 1, 2, 4 h, LC-HRMS, mean ± SD
[3] = po 10 mg/kg, sampled 0.5, 1, 3, 6 h, LC-HRMS, mean ± SD

T1 sequence (P11509 whole entry): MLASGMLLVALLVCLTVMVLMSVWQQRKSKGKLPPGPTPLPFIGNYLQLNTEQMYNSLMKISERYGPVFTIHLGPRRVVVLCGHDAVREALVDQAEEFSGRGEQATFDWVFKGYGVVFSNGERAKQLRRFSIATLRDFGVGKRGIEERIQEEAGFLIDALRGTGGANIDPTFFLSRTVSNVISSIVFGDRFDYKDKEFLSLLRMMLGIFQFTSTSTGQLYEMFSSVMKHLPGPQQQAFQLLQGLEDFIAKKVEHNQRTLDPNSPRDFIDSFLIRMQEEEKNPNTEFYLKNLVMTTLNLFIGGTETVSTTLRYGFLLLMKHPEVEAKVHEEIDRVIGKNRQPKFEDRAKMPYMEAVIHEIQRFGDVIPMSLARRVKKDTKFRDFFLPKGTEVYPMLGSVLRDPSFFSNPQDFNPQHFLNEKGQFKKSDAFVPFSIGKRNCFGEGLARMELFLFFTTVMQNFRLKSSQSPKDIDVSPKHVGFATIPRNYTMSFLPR

## α-amanitin [reference compound]
[1]
  Absolute bioavailability: 3.5–4.8%

## CC[C@H](C)[C@@H]1NC(=O)CNC(=O)[C@@H]2Cc3c([nH]c4cc(O)ccc34)[S@+]([O-])C[C@H](NC(=O)CNC1=O)C(=O)N[C@@H](CC(=O)O)C(=O)N1C[C@H](O)C[C@H]1C(=O)N[C@@H]([C@@H](C)[C@@H](O)CO)C(=O)N2 [β-amanitin]
In vivo; iv 0.8 mg/kg, sampled 0.5, 1, 2, 4 h, LC-HRMS
  AUClast, brain: -
In vivo; [2]
  AUClast, heart: 13,397 ± 908 ng⋅min/g
  AUClast, kidney: 142,023 ± 7510 ng⋅min/g
  AUClast, liver: 25,780 ± 2440 ng⋅min/g
  AUClast, lung: 35,970 ± 3070 ng⋅min/g
  AUClast, spleen: 137,855 ± 11,949 ng⋅min/g
  AUC(0-t): 910 ng·h/mL
In vivo; iv 0.8 mg/kg
  Tissue to plasma (AUC) ratio, heart: 0.2
  Tissue to plasma (AUC) ratio, liver: 0.5
  Tissue to plasma (AUC) ratio, lung: 0.7
In vivo; iv 0.8 mg/kg, 0.8 mg/kg
  Tissue to plasma (AUC) ratio, kidney: 2.6
  Tissue to plasma (AUC) ratio, spleen: 2.5
In vivo; po 10 mg/kg, sampled 0.5, 1, 3, 6 h, LC-HRMS
  AUClast, brain: -
In vivo; [3]
  AUClast, heart: 12,563 ± 2696 ng⋅min/g
  AUClast, kidney: 158,677 ± 84,620 ng⋅min/g
  AUClast, liver: 12,665 ± 11,731 ng⋅min/g
  AUClast, lung: 37,831 ± 11,434 ng⋅min/g
  AUClast, spleen: 42,409 ± 33,867 ng⋅min/g
  AUC(0-t): 394 ng·h/mL
In vivo; po 10 mg/kg, intestine homogenate, sampled 0.5, 1, 3, 6 h, LC-HRMS, mean ± SD
  AUClast, intestine: 2,066,298 ± 492,689 ng⋅min/g
In vivo; po 10 mg/kg
  Tissue to plasma (AUC) ratio, heart: 0.5
  Tissue to plasma (AUC) ratio, intestine: 87.3
  Tissue to plasma (AUC) ratio, liver: 0.5
  Tissue to plasma (AUC) ratio, lung: 1.6
  Tissue to plasma (AUC) ratio, spleen: 1.8
  Tissue to plasma (AUC) ratio, stomach: 28.8
In vivo; po 10 mg/kg, stomach homogenate, sampled 0.5, 1, 3, 6 h, LC-HRMS, mean ± SD
  AUClast, stomach: 680,749 ± 137,691 ng⋅min/g
CYP2A6; with 30 min NADPH preincubation
  IC50: 80.1 µM
CYP2A6; without NADPH preincubation
  IC50: 93.9 µM
